Assay results from patent US9751881B2, “Inhibitors of the renal outer medullary potassium channel” (Merck Sharp & Dohme Corp., priority 2013, dated 2017).
pIC50: −log10 of the molar value. Structures can show the parent of a compound that is named as a salt.

molecular target: hROMK (hKir1.1) (Homo sapiens (Human), UniProt P48048); test: Thallium Flux Assay (ROMK channel functional thallium flux, FLIPR-Tetra); format: cell-based; settings: HEK293 cells stably expressing hROMK (hKir1.1); unit not given in Table 4 (IC50 potencies less than 1 μM); read-out: ROMK TI IC50
Sequence (P48048 whole entry): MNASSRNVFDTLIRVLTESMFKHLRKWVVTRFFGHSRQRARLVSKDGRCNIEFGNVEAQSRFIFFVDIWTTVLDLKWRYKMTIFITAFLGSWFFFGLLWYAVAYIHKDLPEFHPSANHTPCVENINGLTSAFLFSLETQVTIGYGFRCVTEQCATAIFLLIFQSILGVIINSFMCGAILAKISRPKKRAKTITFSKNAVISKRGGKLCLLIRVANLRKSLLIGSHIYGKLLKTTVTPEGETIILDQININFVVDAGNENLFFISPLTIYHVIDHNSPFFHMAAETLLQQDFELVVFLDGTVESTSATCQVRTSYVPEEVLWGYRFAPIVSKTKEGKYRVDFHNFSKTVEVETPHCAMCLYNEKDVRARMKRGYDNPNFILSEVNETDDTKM
Procedure: Cell Culture Conditions—HEK293 cells stably expressing hROMK (hKir1.1) were grown at 37° C. in a 10% CO2 humidified incubator in complete growth media: Dulbecco's Modified Eagle Medium supplemented with non-essential amino acids, Penicillin/Streptomycin/Glutamine, G418 and FBS. At >80% confluency, the media was aspirated from the flask and rinsed with 10 mL calcium/magnesium-free PBS. […] To dislodge the cell, the side of the flask was gently banged with one's hand. The cells completely titrated and then the cells were transferred to 25 mL complete media, centrifuged at 1,500 rpm for 6 min followed by resuspension in complete growth media and determine cell concentration. […] Under ideal growth conditions and appropriate tissue culture practices, this cell line is stable for 40-45 passages.
FluxOR Kit Components (Invitrogen F10017)
• FluxOR™ Reagent (Component A) • FluxOR™ Assay Buffer (Component B)—10× Concentrate • PowerLoad™ Concentrate (Component C)—100× Concentrate • Probenecid (Component D)—Lyophilized sample is kept at −20° C. Water soluble, 100× after solubilization in 1 mL water. […] Store at 4° C. • Thallium sulfate (Tl2SO4) Concentrate (Component G)—50 mM in water. […] Can be stored at room temperature • Stimulant Buffer (prepared at 5× final concentration in 1× FluxOR™Chloride-Free Buffer): 7.5 mM thallium sulfate and 0.75 mM potassium sulfate (to give a final assay concentration of 3 mM Thallium/0.3 mM potassium). Store at 4° C. when not in use. If kept sterile, this solution is good for months.
• 1. Seed HEK-hKir1.1 cells (50 μl at 20,000 cells/well) in 384-well PDL coated Microplates • 2. Allow cells to adhere overnight in humidified 37° C./10% CO2 incubator • 3. Completely remove cell growth media from microplate and replace with 25 μl loading buffer • 4. Incubate Microplate at room temperature, protected form light, for 90 min • 5. Remove loading buffer and replace with 25 μl 1× Assay Buffer±test compound. • 6. Incubate microplate at room temperature, protected from light, for 30 min • 7. […] Excitation=400 nm, Emission=460 & 580 nm. Collect data for ˜10 min.
Data Calculation—The fluorescence intensity of wells containing 3 μM of a standard control ROMK inhibitor of the present invention was used to define the ROMK-sensitive component of thallium flux. Fluorescence in the presence of test compounds was normalized to control values to provide % fluorescence change.

Row | pIC50 | SMILES
1 | 7.15 | C=CCN[C@@H](CN1CCC2(CC1)CCN(c1ccc(C#N)cn1)C2)c1ccc2c(c1C)COC2=O [Example 78, (R)-6-(8-(2-(allylamino)-2-(4-methyl-1-oxo-1,3-dihydroisobenzofuran-5-yl)ethyl)-2,8-diazaspiro[4.5]decan-2-yl)nicotinonitrile]
2 | 7.07 | Cc1c([C@@H](O)CN2CCC3(CC2)CCN(c2ccc(S(C)(=O)=O)cc2)C3=O)ccc2c1COC2=O [Example 75, 8-[(2R)-2Hydroxy-2-(4-methyl-1-oxo-1,3-dihydro-2-benzofuran-5-yl)ethyl]-2-[4-(methylsulfonyl)phenyl]-2,8-diazaspiro[4.5]decan-1-one hydrochloride]
3 | 7.16 | C[C@@H]1Cc2cc(C(O)CN3CCC4(CC3)CN(c3ccc(C#N)cn3)C4)ccc2C(=O)O1 (stereo partly drawn) [Example 52B, 6-(7-(2-Hydroxy-2-((R)-3-methyl-1-oxoisochroman-6-yl)ethyl)-2,7-diazaspiro[3.5]nonan-2-yl)nicotinonitrile]
4 | 7.30 | CC1Cc2cc(C(O)CN3CCC4(CC3)CCN(c3ccc(C#N)cn3)C4)ccc2C(=O)O1 [Example 21, 6-(8-(2-Hydroxy-2-((R)-3-methyl-1-oxoisochroman-6-yl)ethyl)-2,8-diazaspiro[4.5]decan-2-yl)nicotinonitrile]
5 | 6.67 | Cc1c([C@@H](O)CN2CCC3(CC2)CCN(c2cnc(S(C)(=O)=O)cn2)C3=O)ccc2c1COC2=O [Example 42, (R)-8-(2-Hydroxy-2-(4-methyl-1-oxo-1,3-dihydroisobenzofuran-5-yl)ethyl)-2-(5-(methylsulfonyl)pyrazin-2-yl)-2,8-diazaspiro[4.5]decan-1-one]
6 | 7.84 | Cc1c(C(O)CN2CCC3(CC2)CCN(c2ncc(C#N)cn2)CC3)ccc2c1COC2=O (stereo not shown) [Example 109]
7 | 6.44 | Cc1nc(N2CC3(CCN(C[C@H](O)c4ccc5c(c4C)COC5=O)CC3)CC2=O)ccc1-n1cnnn1 [Example 73, 8-[(2R)-2-Hydroxy-2-(4-methyl-1-oxo-1,3-dihydro-2-benzofuran-5-yl)ethyl]-2-[6-methyl-5-(1H-tetrazol-1-yl)pyridin-2-yl]-2,8-diazaspiro[4.5]decan-3-one hydrochloride]
8 | 7.31 | COc1cc(N2CCC3(CCN(C[C@H](O)c4ccc5c(c4C)COC5=O)CC3)C2=O)ncc1C#N [Example 58, (R)-6-(8-(2-Hydroxy-2-(4-methyl-1-oxo-1,3-dihydroisobenzofuran-5-yl)ethyl)-1-oxo-2,8-diazaspiro[4.5]decan-2-yl)-4-methoxynicotinonitrile]
9 | 7.00 | Cc1c([C@@H](O)CN2CCC3(CC2)CCN(c2nnc(S(C)(=O)=O)s2)C3=O)ccc2c1COC2=O [Example 76, 8-[(2R)-2-Hydroxy-2-(4-methyl-1-oxo-1,3-dihydro-2-benzofuran-5-yl)ethyl]-2-[5-(methylsulfonyl)-1,3,4-thiadiazol-2-yl]-2,8-diazaspiro[4.5]decan-1-one hydrochloride]
10 | 6.59 | Cc1c([C@@H](O)CN2CCC3(CC2)CN(c2ccc(S(C)(=O)=O)nc2)C3)ccc2c1COC2=O [Example 46, (R)-5-(1-Hydroxy-2-(2-(6-(methylsulfonyl)pyridin-3-yl)-2,7-diazaspiro[3.5]nonan-7-yl)ethyl)-4-methylisobenzofuran-1(3H)-one]
11 | 7.38 | Cc1c([C@@H](O)CN2CCC3(CC2)CCN(c2ccc(S(C)(=O)=O)cc2)C3)ccc2c1COC2=O [Example 31, (R)-5-(1-Hydroxy-2-(2-(4-(methylsulfonyl)phenyl)-2,8-diazaspiro[4.5]decan-8-yl)ethyl)-4-methylisobenzofuran-1(3H)-one]
12 | 7.23 | Cc1c([C@@H](O)CN2CCC3(CC2)CCN(c2ccc(S(C)(=O)=O)nn2)C3=O)ccc2c1COC2=O [Example 57, (R)-8-(2-Hydroxy-2-(4-methyl-1-oxo-1,3-dihydroisobenzofuran-5-yl)ethyl)-2-(6-(methylsulfonyl)pyridazin-3-yl)-2,8-diazaspiro[4.5]decan-1-one]
13 | 7.78 | COc1cc(N2CC3(CCN(C[C@H](O)c4ccc5c(c4C)COC5=O)CC3)OCC2=O)ncc1C#N [Example 102, (R)-6-(9-(2-Hydroxy-2-(4-methyl-1-oxo-1,3-dihydroisobenzofuran-5-yl)ethyl)-3-oxo-1-oxa-4,9-diazaspiro[5.5]undecan-4-yl)-4-methoxynicotinonitrile]
14 | 6.87 | Cc1cc(N2CCC3(CCN(C[C@H](O)c4ccc5c(c4C)COC5=O)CC3)C2)cnc1S(C)(=O)=O [Example 23, (R)-5-(1-Hydroxy-2-(2-(5-methyl-6-(methylsulfonyl)pyridin-3-yl)-2,8-diazaspiro[4.5]decan-8-yl)ethyl)-4-methylisobenzofuran-1(3H)-one]
15 | 6.72 | Cc1c(CCN2CCC3(CC2)CCN(c2ccc(-c4ncon4)cn2)C3)ccc2c1COC2=O [Example 17, 5-(2-(2-(5-(1,2,4-oxadiazol-3-yl)pyridin-2-yl)-2,8-diazaspiro[4.5]decan-8-yl)ethyl)-4-methylisobenzofuran-1(3H)-one]
16 | 7.07 | Cc1c([C@@H](O)CN2CCC3(CC2)CCN(c2ccc(S(C)(=O)=O)cn2)C3=O)ccc2c1COC2=O [Example 96, (R)-8-(2-Hydroxy-2-(4-methyl-1-oxo-1,3-dihydroisobenzofuran-5-yl)ethyl)-2-(5-(methylsulfonyl)pyridin-2-yl)-2,8-diazaspiro[4.5]decan-1-one]
17 | 6.57 | Cc1c([C@@H](O)CN2CCC3(CCN(c4ccc(S(C)(=O)=O)cn4)CC3)C2)ccc2c1COC2=O [Example 64, 5-[(1R)-1-Hydroxy-2-{8-[5-(methylsulfonyl)pyridin-2-yl]-2,8-diazaspiro[4.5]dec-2-yl}ethyl]-4-methyl-2-benzofuran-1(3H)-one hydrochloride]
18 | 7.03 | Cc1c([C@@H](O)CN2CCC3(CC2)CC(=O)N(c2ccc(-n4cnnn4)cn2)C3)ccc2c1COC2=O [Example 6, (R)-2-(5-(1H-tetrazol-1-yl)pyridin-2-yl)-8-(2-hydroxy-2-(4-methyl-1-oxo-1,3-dihydroisobenzofuran-5-yl)ethyl)-2,8-diazaspiro[4.5]decan-3-one]
19 | 7.36 | Cc1c([C@@H](O)CN2CCC3(CC2)CCN(c2cnc(S(C)(=O)=O)cn2)C3)ccc2c1COC2=O [Example 33, (R)-5-(1-Hydroxy-2-(2-(5-(methylsulfonyl)pyrazin-2-yl)-2,8-diazaspiro[4.5]decan-8-yl)ethyl)-4-methylisobenzofuran-1(3H)-one]
20 | 6.87 | Cc1nc(N2CCC3(CCN(CC(O)c4ccc5c(c4C)COC5=O)CC3)CC2)ccc1C#N (stereo not shown) [Example 114]
21 | 7.64 | Cc1cc2c(cc1C(O)CN1CCC3(CC1)CC(=O)N(c1ccc(C#N)cn1)C3)COC2=O (stereo not shown) [Example 2, 6-(8-(2-hydroxy-2-(6-methyl-1-oxo-1,3-dihydroisobenzofuran-5-yl)ethyl)-3-oxo-2,8-diazaspiro[4.5]decan-2-yl)nicotinonitrile]
22 | 8.02 | Cc1c(C(O)CN2CCC3(CC2)CCN(c2cnc(C#N)cn2)CC3)ccc2c1COC2=O (stereo not shown) [Example 111]
23 | 8.00 | Cc1cc(N2CCC3(CCN(C[C@H](O)c4ccc5c(c4C)COC5=O)CC3)C2)cnc1C#N [Example 81]
24 | 7.06 | Cc1c([C@@H](O)CN2CCC3(CC2)CC(=O)N(c2ncc(S(C)(=O)=O)s2)C3)ccc2c1COC2=O [Example 37, (R)-8-(2-Hydroxy-2-(4-methyl-1-oxo-1,3-dihydroisobenzofuran-5-yl)ethyl)-2-(5-(methylsulfonyl)thiazol-2-yl)-2,8-diazaspiro[4.5]decan-3-one]
25 | 6.99 | N#Cc1ccc(N2CCC3(CCN(CC4OCCc5c4ccc4c5COC4=O)CC3)C2)nc1 (stereo not shown) [Example 27, 6-(8-((3-oxo-3,6,8,9-tetrahydro-1H-furo[3,4-f]isochromen-6-yl)methyl)-2,8-diazaspiro[4.5]decan-2-yl)nicotinonitrile]
26 | 6.87 | Cc1c(C(O)CN2CCC3(CC2)CCN(c2nccnc2C#N)CC3)ccc2c1COC2=O (stereo not shown) [Example 110]
27 | 6.79 | Cc1cc(C#N)c(N2CCC3(CCN(CC(O)c4ccc5c(c4C)COC5=O)CC3)CC2)nn1 (stereo not shown) [Example 112]

Row | SMILES | pIC50
28 | Cc1c([C@@H](O)CN2C3CCC2CC2(CC(=O)N(c4ccc(C#N)cn4)C2)C3)ccc2c1COC2=O (stereo partly drawn) [Example 29, 6-(8-((R)-2-Hydroxy-2-(4-methyl-1-oxo-1,3-dihydroisobenzofuran-5-yl)ethyl)-5′-oxo-8-azaspiro[bicyclo[3.2.1]octane-3,3′-pyrrolidin]-1′-yl)nicotinonitrile] | 6.70
